Source: US20130345215A1, “PYRAZOLOPYRIMIDONE AND PYRAZOLOPYRIDONE INHIBITORS OF TANKYRASE” (Genentech, Inc., priority 2012, published 2013)

Each molecule was assayed on Wnt stimulated TCF transcriptional activity, HEK293-TS 112 TCF reporter cell line (assay: Tankyrase 1 Assay (Example 119): Wnt3A-stimulated TOPbrite TCF luciferase reporter). Conditions: Compounds I-59 to I-144, procedure in Example 119 (0.5 ug/mL Wnt3A, 16 hours); read-out: TNKS1 (IC50).
Type: cell-based
Protocol: Inhibition of the Wnt stimulated TCF transcriptional activity by tankyrase inhibitors was determined utilizing a HEK293-TS 112 TCF reporter cell line. A Wnt-responsive luciferase reporter named TOPbrite was constructed by cloning the enhancer element of Super8xTOPFlash containing eight TCF/LEF binding sites into the pGL4.28 vector (Promega) upstream of the minimal promoter element, and selecting for hygromycin B resistance (50 μg/ml). Cells were seeded into 384-well plates in the presence of 0.5 ug/mL of Wnt3A at a density of 20,000 cells per well in 25 ul of F:12 DMEM media supplemented with 10% FBS and 2 mM Glutamax. Cells seeded without the addition of Wnt3A were used as background signal. Compounds of various concentrations were added to cells and incubated at 37 degrees with 5% CO2 for 16 hours. The assay was terminated with the addition of Promega Dual Glo kit per manufacturer's instructions. A ratio of TOPbrite Firefly Luciferase and SV40 Renillla Luciferase was calculated and the background from the neutral wells was subtracted yielding the final normalized measurement of TCF transcriptional activity. Compound IC50s were determined by four-parameter curve fitting using GeneData software.

SMILES | IC50 [µM]
CC(C)n1ccc(C2(C)CCN(c3nc4c(cnn4C)c(=O)[nH]3)CC2)n1 [Compound I-119, 6-[4-(1-isopropylpyrazol-3-yl)-4-methyl-1-piperidyl]-1-methyl-5H-pyrazolo[3 4-d]pyrimidin-4-one] | 0.124
CN1CCN(Cc2cc(F)c(N3CCN(c4nc5c(cnn5C)c(=O)[nH]4)CC3)c(F)c2)CC1 [Compound I-60, 6-[4-[2 6-difluoro-4-[(4-methylpiperazin-1-yl)methyl]phenyl]piperazin-1-yl]-1-methyl-5H-pyrazolo[3 4-d]pyrimidin-4-one] | 0.0038
Cn1ncc2c(=O)[nH]c(N3CCN(c4c(F)cc(OCC5C[S+]([O-])C5)cc4F)CC3)nc21 (stereo not shown) [Compound I-72, 6-[4-[2 6-difluoro-4-[(1-oxothietan-3-yl)methoxy]phenyl]piperazin-1-yl]-1-methyl-5H-pyrazolo[3 4-d]pyrimidin-4-one] | 0.0086
Cn1ncc2c(=O)[nH]c(N3CCN(c4c(F)cc(OCCN5CCOCC5)cc4F)CC3)nc21 [Compound I-74, 6-[4-[2 6-difluoro-4-(2-morpholinoethoxy)phenyl]piperazin-1-yl]-1-methyl-5H-pyrazolo[3 4-d]pyrimidin-4-one] | 0.0089
CCn1ccc(C2(C)CCN(c3nc4c(cnn4C)c(=O)[nH]3)CC2)n1 [Compound I-92, 6-[4-(1-ethylpyrazol-3-yl)-4-methyl-1-piperidyl]-1-methyl-5H-pyrazolo[3 4-d]pyrimidin-4-one] | 0.0245
Cn1ncc2c(=O)[nH]c(N3CCN(c4c(F)cc(OC5COC5)cc4F)CC3)nc21 [Compound I-85, 6-[4-[2 6-difluoro-4-(oxetan-3-yloxy)phenyl]piperazin-1-yl]-1-methyl-5H-pyrazolo[3 4-d]pyrimidin-4-one] | 0.0171
COCCOc1cc(F)c(N2CCN(c3nc4c(cnn4CCCO)c(=O)[nH]3)CC2)c(F)c1 [Compound I-95, 6-[4-[2 6-difluoro-4-(2-methoxyethoxy)phenyl]piperazin-1-yl]-1-(3-hydroxypropyl)-5H-pyrazolo[3 4-d]pyrimidin-4-one] | 0.027
Cn1ncc2c(=O)[nH]c(-c3ccc(S(C)(=O)=O)cn3)nc21 [Compound I-139, 1-methyl-6-(5-methylsulfonyl-2-pyridyl)-5H-pyrazolo[3 4-d]pyrimidin-4-one] | 0.547
Cn1ncc2c(=O)[nH]c(N3CCC(c4ccccc4)CC3)nc21 [Compound I-101, 1-methyl-6-(4-phenyl-1-piperidyl)-5H-pyrazolo[3 4-d]pyrimidin-4-one] | 0.0462
COC(C)c1cc(F)c(N2CCN(c3nc4c(cnn4C)c(=O)[nH]3)CC2)c(F)c1 (stereo not shown) [Compound I-71, 6-[4-[2 6-difluoro-4-(1-methoxyethyl)phenyl]piperazin-1-yl]-1-methyl-5H-pyrazolo[3 4-d]pyrimidin-4-one] | 0.0083
Cn1cnnc1C1CCN(c2nc3c(cnn3C)c(=O)[nH]2)CC1 [Compound I-122, 1-methyl-6-[4-(4-methyl-1 2 4-triazol-3-yl)-1-piperidyl]-5H-pyrazolo[3 4-d]pyrimidin-4-one] | 0.163
CC(O)Cn1ccc(C2(C)CCN(c3nc4c(cnn4C)c(=O)[nH]3)CC2)n1 (stereo not shown) [Compound I-99, 6-[4-[1-(2-hydroxypropyl)pyrazol-3-yl]-4-methyl-1-piperidyl]-1-methyl-5H-pyrazolo[3 4-d]pyrimidin-4-one] | 0.0419
Cn1ncc2c(=O)[nH]c(N3CCN(c4c(F)cc(CN5CCOCC5)cc4F)CC3)nc21 [Compound I-67, 6-[4-[2 6-difluoro-4-(morpholinomethyl)phenyl]piperazin-1-yl]-1-methyl-5H-pyrazolo[3 4-d]pyrimidin-4-one] | 0.0069
C[C@H](N)C(=O)OCCOc1cc(F)c(N2CCN(c3nc4c(cnn4C)c(=O)[nH]3)CC2)c(F)c1 [Compound I-59, 2-[3 5-difluoro-4-[4-(1-methyl-4-oxo-5H-pyrazolo[3 4-d]pyrimidin-6-yl)piperazin-1-yl]phenoxy]ethyl (2S)-2-aminopropanoate] | 0.0037
Cn1ncc2c(=O)[nH]c(N3CCN(C4CCOCC4)CC3)nc21 [Compound I-130, 1-methyl-6-(4-tetrahydropyran-4-ylpiperazin-1-yl)-5H-pyrazolo[3 4-d]pyrimidin-4-one] | 0.315
Cn1ncc2c(=O)[nH]c(N3CCC(c4ccncc4)CC3)nc21 [Compound I-109, 1-methyl-6-[4-(4-pyridyl)-1-piperidyl)-5H-pyrazolo[3 4-d]pyrimidin-4-one] | 0.0806
Cn1ncc2c(=O)[nH]c(N3CCN(c4c(F)cc(CO)cc4F)CC3)nc21 [Compound I-79, 6-[4-[2 6-difluoro-4-(hydroxymethyl)phenyl]piperazin-1-yl]-1-methyl-5H-pyrazolo[3 4-d]pyrimidin-4-one] | 0.0133

SMILES | IC50 [µM]
COCCOc1cc(F)c(N2CCN(c3nc4c(cnn4CCO)c(=O)[nH]3)CC2)c(F)c1 [Compound I-94, 6-[4-[2 6-difluoro-4-(2-methoxyethoxy)phenyl]piperazin-1-yl]-1-(2-hydroxyethyl)-5H-pyrazolo[3 4-d]pyrimidin-4-one] | 0.264
Cn1cncc1C1CCN(c2nc3c(cnn3C)c(=O)[nH]2)CC1 [Compound I-100, 1-methyl-6-[4-(3-methylimidazol-4-yl)-1-piperidyl]-5H-pyrazolo[3 4-d]pyrimidin-4-one] | 0.0438
COCCOc1cc(F)c(N2CCN(c3nc4c(cnn4CC(C)(C)O)c(=O)[nH]3)CC2)c(F)c1 [Compound I-143, 6-[4-[2 6-difluoro-4-(2-methoxyethoxy)phenyl]piperazin-1-yl]-1-(2-hydroxy-2-methyl-propyl)-5H-pyrazolo[3 4-d]pyrimidin-4-one] | 0.795
Cn1ncc2c(=O)[nH]c(N3CCC(c4n[nH]c5ncccc45)CC3)nc21 [Compound I-97, 1-methyl-6-[4-(1H-pyrazolo[3 4-b]pyridin-3-yl)-1-piperidyl]-5H-pyrazolo[3 4-d]pyrimidin-4-one] | 0.0319
Cn1cncc1C1CCN(c2nc3c(cnn3C)c(=O)[nH]2)C1 (stereo not shown) [Compound I-114, 1-methyl-6-[3-(3-methylimidazol-4-yl)pyrrolidin-1-yl]-5H-pyrazolo[3 4-d]pyrimidin-4-one] | 0.0903
Cc1c[nH]nc1C1CCN(c2nc3c(cnn3C)c(=O)[nH]2)CC1 [Compound I-115, 1-methyl-6-[4-(4-methyl-1H-pyrazol-3-yl)-1-piperidyl]-5H-pyrazolo[3 4-d]pyrimidin-4-one] | 0.107
Cn1ncc2c(=O)[nH]c(N3CCN(S(C)(=O)=O)CC3)nc21 [Compound I-142, 1-methyl-6-(4-methylsulfonylpiperazin-1-yl)-5H-pyrazolo[3 4-d]pyrimidin-4-one] | 0.74
CC(C)[C@H](N)C(=O)OCCOc1cc(F)c(N2CCN(c3nc4c(cnn4C)c(=O)[nH]3)CC2)c(F)c1 [Compound I-61, 2-[3 5-difluoro-4-[4-(1-methyl-4-oxo-5H-pyrazolo[3 4-d]pyrimidin-6-yl)piperazin-1-yl]phenoxy]ethyl (2S)-2-amino-3-methyl-butanoate] | 0.0042
Cn1ncc2c(=O)[nH]c(N3CCN(c4c(F)cc(CC(O)CO)cc4F)CC3)nc21 (stereo not shown) [Compound I-66, 6-[4-[4-(2 3-dihydroxypropyl)-2 6-difluoro-phenyl]piperazin-1-yl]-1-methyl-5H-pyrazolo[3 4-d]pyrimidin-4-one] | 0.0066
Cc1cc(CN2CCN(c3nc4c(cnn4C)c(=O)[nH]3)CC2)no1 [Compound I-140, 1-methyl-6-[4-[(5-methylisoxazol-3-yl)methyl]piperazin-1-yl]-5H-pyrazolo[3 4-d]pyrimidin-4-one] | 0.566
Cn1ncc2c(=O)[nH]c(N3CCC(Cc4cccnc4)C3)nc21 (stereo not shown) [Compound I-137, 1-methyl-6-[3-(3-pyridylmethyl)pyrrolidin-1-yl]-5H-pyrazolo[3 4-d]pyrimidin-4-one] | 0.49
O=c1[nH]c(N2CCN(c3c(F)cc(F)cc3F)CC2)nc2[nH]ncc12 [Compound I-104, 6-[4-(2 4 6-trifluorophenyl)piperazin-1-yl]-1 5-dihydropyrazolo[3 4-d]pyrimidin-4-one] | 0.055
Cn1ncc2c(=O)[nH]c(N3CCN(c4c(F)cc(OC5CCOCC5)cc4F)CC3)nc21 [Compound I-76, 6-[4-(2 6-difluoro-4-tetrahydropyran-4-yloxy-phenyl)piperazin-1-yl]-1-methyl-5H-pyrazolo[3 4-d]pyrimidin-4-one] | 0.0111
Cn1ncc2c(=O)[nH]c(N3CCN(c4c(F)cc(OC5CC[S+]([O-])CC5)cc4F)CC3)nc21 (stereo not shown) [Compound I-87, 6-[4-[2 6-difluoro-4-(1-oxothian-4-yl)oxy-phenyl]piperazin-1-yl]-1-methyl-5H-pyrazolo[3 4-d]pyrimidin-4-one] | 0.0187
Cn1ncc2c(=O)[nH]c(N3CCC(n4cccn4)CC3)nc21 [Compound I-112, 1-methyl-6-(4-pyrazol-1-yl-1-piperidyl)-5H-pyrazolo[3 4-d]pyrimidin-4-one] | 0.0883
Cn1ncc2c(=O)[nH]c(N3CCC(c4nc(-c5cnccn5)no4)CC3)nc21 [Compound I-106, 1-methyl-6-[4-(3-pyrazin-2-yl-1 2 4-oxadiazol-5-yl)-1-piperidyl]-5H-pyrazolo[3 4-d]pyrimidin-4-one] | 0.0641
Cn1ncc2c(=O)[nH]c(N3CCC(C)(c4ccn(CCO)n4)CC3)nc21 [Compound I-89, 6-[4-[1-(2-hydroxyethyl)pyrazol-3-yl]-4-methyl-1-piperidyl]-1-methyl-5H-pyrazolo[3 4-d]pyrimidin-4-one] | 0.0218
